From article PMC9154752, “MHC class II molecules on pancreatic cancer cells indicate a potential for neo-antigen-based immunotherapy” (Oncoimmunology, 2022)
Where “and” joins values, the source holds several entries; their conditions need not be identical. Equal values may be shown once. Read-outs that look alike come from different tables or passages of the source. Residues, ends and D or L forms follow the SMILES beside them. No end group written: not given here.

Columns and labels:
CD4+ T-cells = assay: Immunogenicity T-cell assay (intracellular IFN-γ in peptide-stimulated CD4+ T-cells); format: cell-based, human; settings: for Immunogenicity, % of responses: percentage of the 9 donors responding; for Immunogenicity, No of responses: responding donors of 9 HLA-DP4-positive donors, 3 weekly stimulations with mDC pulsed at 10 μg/mL, challenge with peptide-pulsed T2-DP4, intracellular IFN-γ by FACS
Procedure: Immunogenicity of candidate HLA-DP4 neo-epitopes was performed using HLA-matched healthy donors’ autologous PBMCs. Briefly, mature DCs were pulsed with individual neo-epitopes at 10 μg/mL and co-cultured with autologous magnetic-sorted CD4+ T-cells (CD4 Microbeads Human, MACS Miltenyi; #130-045-101) in RPMI with 5% AB human serum (#H4522-100ML; Sigma-Aldrich), 10 units/mL penicillin–streptomycin, 2 mmol/L L-glutamine, 1% nonessential amino acid, IL-6 (#570802; BioLegend) (1000 U/mL) and IL-12 (#573002; BioLegend) (5 ng/mL). IL-2 (#589106; BioLegend) (30 U/mL) and IL-7 (#581902; BioLegend) (5 ng/mL) was added every 2 days. CD4+ T-cells underwent another two rounds of stimulation with peptide-pulsed mature DCs on day 7 and 14. Seven days after the third stimulation, CD4+ T-cells were challenged by overnight incubation with peptide-loaded T2-DP4 cells. As a control, CD4+ T-cells were incubated with T2-DP4 without peptide. Reactivity of the T cells was determined by intracellular IFN-γ (#502515; BioLegend) staining measured by flow cytometry. When Capan-1-derived neo-epitopes were tested, the peptide-stimulated CD4+ T-cells were challenged by overnight incubation with Capan-1 (MHC-II-negative), IFN-γ-treated Capan-1 cells (MHC-II-positive). Supernatants were collected and assessed for LDH (cytotoxicity), IFN-γ, granzyme B and granulysin. Where indicated, purified endotoxin-free anti-MHC class II (clone TÜ39; #555556; BD Bioscience, Chicago, IL, USA) antibodies were added to the co-cultures at 10 μg/mL.
(§1) For cell surface labeling, cell suspensions were incubated with antibodies for 30 min at room temperature. For intracellular staining, cells were fixed and permeabilized using a Leucoperm kit (Bio-Rad; #BUF09C) in accordance with the manufacturer’s guidelines. Prior to intracellular staining with anti-IFN-γ, cells were incubated overnight in the presence of 5 microgram per mL brefeldin A (Sigma-Aldrich; #B6542-5 MG). Cell viability was analyzed by Ethidium homodimer 1 and calcein-AM double-staining using LIVE/DEAD® Viability/Cytotoxicity Kit, for mammalian cells according to the manufacturer’s instructions (#L3224; Invitrogen). Flow cytometry was done using a FACSCalibur (Becton Dickinson, Heidelberg, Germany) or BD LSRII (Becton Dickinson) flow cytometer. The data were processed with the CellQuest software (Becton Dickinson, Heidelberg, Germany) and analyzed with the WinMDi 2.9 (Purdue University, USA).

PDAC cell lines = assay: MHC-II surface expression on PDAC cell lines by flow cytometry; format: cell-based, human; settings: 48 h; for MHC-II expression, agent alone / MHC-II expression, treatment together with IFN-γ: 8988 T, FA6 and MiaPaca-2 cells; for MHC-II expression, treatment together with IFN-γ: IFN-γ 50 ng/mL
Procedure: All PDAC cell lines were stimulated with 50 ng/mL of the human recombinant IFN-γ (#570206; BioLegend) in T75 culture flasks for 48 h. As negative control, we co-incubated the cell lines in the medium alone. Where inhibitors were used, trametinib (#S2673; Selleckchem) or trichostatin A (TSA) (#T8552-1 MG; Sigma-Aldrich) at the indicated concentrations were added into the cultures with or without IFN-γ. After incubation, the cells were removed from the flasks by treatment with trypsin, cell suspensions were prepared and cells were stained with purified mouse IgG antibodies to CLIP (clone CerCLIP.1; #ab22606; Abcam, Cambridge, UK), and HLA-DR, DP, DQ (clone Tü39; #555556; BD) or isotype control (mouse IgG2a; #554645; BD) followed by Alexa Fluor 488-conjugated anti-mouse IgG, and APC-conjugated anti-PD-L1 (clone 29E.2A3; #329708; BioLegend) and processed for flow cytometry analysis.
as §1

MiaPaca-2 cells = assay: CD4+ T-cell recognition of MiaPaca-2 cells (granzyme B ELISA); format: cell-based, human; settings: MHC-II induced by IFN-γ in conjunction with trametinib; overnight, T-cell:tumor 5:1, granzyme B ELISA, 4 donors
Procedure: Figure 8. Trametinib and TSA enhance responsiveness to IFN-γ in PDAC cells. (A) 8988 T, FA6 and MiaPaca-2 cells were treated with IFN-γ or left untreated, in the presence or absence of the MEK inhibitor, trametinib and/or histone deacetylase inhibitor TSA at the indicated concentrations for 48 hours. The cells were then collected, stained with anti-MHC-II antibodies and analyzed by flow cytometry. All flow cytometry data were gated on viable, singlets and MFI values for MHC-II were normalized to the untreated cells (none). Data are from three independent experiments. (B) Allogenic activated CD4+ T-cells from 4 healthy donors were incubated overnight with MiaPaca-2 cells (T-cell:tumor ratio 5:1). Where indicated, the cultures were treated with blocking antibodies or isotype control (IgG). […] All data were analyzed by one-way ANOVA; * P < 0.05; ** p < 0.01; *** p < 0.001; **** p < 0.0001. […]
The cytokine IFN-γ and the cytolytic molecules granulysin and granzyme B were detected in supernatants of T-cell/tumor cell co-cultures using commercial ELISA kits (Human IFN gamma ELISA Ready-SET-Go!®, #88-7316-76, Affymetrix eBioscience; Human Granulysin DuoSet ELISA, #DY3138; and Human Granzyme B DuoSet ELISA, #DY2906-05, R&D Systems) in 96-well microtiter plates (Nunc Maxisorp, Rochester, NY, USA) following the manufacturer’s instructions.

HLA-DP4 = biological target: T1, HLA-DP4 (Homo sapiens, UniProt P04440+P20036); assay: Cell-based competitive MHC-II binding assay with T2-DP4 cells
T1 construct: expressed in transfected cells; host or cells: T2 lymphoblastoid cell line transfected with HLA-DP4 (T2-DP4), gift of Prof; Naoto Hirano, University of Toronto
T1 sequence (P04440 30-258): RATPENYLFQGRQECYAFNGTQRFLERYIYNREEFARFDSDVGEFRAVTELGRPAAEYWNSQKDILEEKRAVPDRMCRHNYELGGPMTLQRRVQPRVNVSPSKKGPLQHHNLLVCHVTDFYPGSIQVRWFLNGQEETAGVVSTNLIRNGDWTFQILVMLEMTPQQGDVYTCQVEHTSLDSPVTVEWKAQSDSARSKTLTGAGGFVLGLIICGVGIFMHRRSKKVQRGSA
T1 sequence (P20036 29-260): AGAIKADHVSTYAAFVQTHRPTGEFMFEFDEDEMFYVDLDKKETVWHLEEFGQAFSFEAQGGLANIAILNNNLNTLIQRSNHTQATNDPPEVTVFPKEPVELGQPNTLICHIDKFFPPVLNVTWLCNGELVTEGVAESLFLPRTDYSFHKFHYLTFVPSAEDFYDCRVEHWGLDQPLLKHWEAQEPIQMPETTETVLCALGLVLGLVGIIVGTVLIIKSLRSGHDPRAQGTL

[1] = T2-DP4 cells, overnight 37°C, competitor from 80 µM in 8 serial dilution steps, 500 nM FITC-labeled Oxy271-287, flow cytometry, n = 3 per peptide, read-out: IC50 (µM) Binding Assay

## CSCC[C@H](NC(=O)[C@H](CCC(N)=O)NC(=O)[C@@H]1CCCN1C(=O)[C@@H](NC(=O)[C@H](CC(=O)O)NC(=O)[C@@H](N)CS)C(C)C)C(=O)N[C@@H](CC(C)C)C(=O)N[C@@H](CCCCN)C(=O)N[C@@H](CC(C)C)C(=O)N[C@@H](C)C(=O)N[C@@H](CS)C(=O)N[C@@H](Cc1ccc(O)cc1)C(=O)N[C@@H](Cc1ccc(O)cc1)C(=O)N[C@@H](CCC(=O)O)C(=O)N[C@@H](Cc1ccccc1)C(=O)O [Peptide 94] (H-CDVPQMLKLACYYEF-OH; N-terminus and C-terminus assumed)
CD4+ T-cells
  Immunogenicity, % of responses: 0%
  Immunogenicity, No of responses: 0 of 9

## CC(/C=C/C(=O)NO)=C\[C@@H](C)C(=O)c1ccc(N(C)C)cc1 [TSA, trichostatin A]
PDAC cell lines
  MHC-II expression, agent alone: did not induce expression of MHC-II
  MHC-II expression, treatment together with IFN-γ: enhanced MHC-II expression in FA6 cells, but not in 8988 T and MiaPaca-2 cells

## CC(=O)Nc1cccc(-n2c(=O)n(C3CC3)c(=O)c3c(Nc4ccc(I)cc4F)n(C)c(=O)c(C)c32)c1 [trametinib]
PDAC cell lines
  MHC-II expression, agent alone: induced a slight increase in the expression of MHC-II
  MHC-II expression, treatment together with IFN-γ: increased MHC-II expression compared with IFN-γ alone
MiaPaca-2 cells
  Susceptibility of MiaPaca-2 cells to CD4+ T-cell recognition: rendered these cells susceptible to CD4+ T-cells recognition

## ALLKFWEDEGFVREE [Peptide 101]
CD4+ T-cells
  Immunogenicity, % of responses: 44%
  Immunogenicity, No of responses: 4 of 9

## FESEKYQDILMWNYR [Peptide 73]
HLA-DP4; [1]
  IC50: 15.9 µM

## FNNFTVSFWLRVPKVSASHLE [TT 947-967, reference compound]
HLA-DP4
  IC50: 3.05 µM

## FQHLHRLTYLKLWYN [Peptide 80]
HLA-DP4; [1]
  IC50: 27.8 µM

## GKGLVYAQYLPKEQY [Peptide 105]
HLA-DP4; [1]
  IC50: 47.9 µM

## GLQTLYSAALYHLTT [Peptide 93]
HLA-DP4; [1]
  IC50: 21.6 µM

## HLVAFGISCFLGSGL [Peptide 77]
CD4+ T-cells; 9 HLA-DP4-positive donors
  Immunogenicity (in words): most immunogenic
CD4+ T-cells
  Immunogenicity, % of responses: 88%
  Immunogenicity, No of responses: 8 of 9

## HTCVKFYIEGFEPGK [Peptide 74]
CD4+ T-cells
  Immunogenicity, % of responses: 11%
  Immunogenicity, No of responses: one out of nine and 1 of 9

## IGQVAAGAFANLRAL [Peptide 99]
HLA-DP4; [1]
  IC50: 27.9 µM

## IVKGRFGEVWRGRWR [Peptide 103]
CD4+ T-cells
  Immunogenicity, % of responses: 22%
  Immunogenicity, No of responses: 2 of 9

## IYSLRNTEFKSALRR [Peptide 83]
HLA-DP4; [1]
  IC50: 27.7 µM

## KFESEKYQDILMWNY [Peptide 71]
HLA-DP4; [1]
  IC50: 28.9 µM

## LKFWEDEGFVREEED [Peptide 100]
CD4+ T-cells
  Immunogenicity, % of responses: 22%
  Immunogenicity, No of responses: 2 of 9

## LLKFWEDEGFVREEE [Peptide 98]
CD4+ T-cells
  Immunogenicity, % of responses: 11%
  Immunogenicity, No of responses: one out of nine and 1 of 9

## MIYSLRNTEFKSALR [Peptide 84]
HLA-DP4; [1]
  IC50: 24.5 µM

## PMIYSLRNTEFKSAL [Peptide 92]
HLA-DP4; [1]
  IC50: 6.36 µM

## PRGKGLVYAQYLPKE [Peptide 104]
HLA-DP4; [1]
  IC50: 38.2 µM

## QGKYKAFSTCAFHLS [Peptide 70]
HLA-DP4; [1]
  IC50: 31.5 µM

## QHLHRLTYLKLWYNH [Peptide 82]
HLA-DP4; [1]
  IC50: 18.6 µM

## QPEGPYRVAGYSYVA [Peptide 87]
HLA-DP4; [1]
  IC50: 31.9 µM

## RNTGLQTLYSAALYH [Peptide 97]
HLA-DP4; [1]
  IC50: 22.6 µM

## RNTIGQVAAGAFANL [Peptide 86]
HLA-DP4; [1]
  IC50: 37 µM

## SFQHLHRLTYLKLWY [Peptide 78]
HLA-DP4; [1]
  IC50: 25.8 µM

## SIDRTVMYYGLLFIQ [Peptide 88]
HLA-DP4; [1]
  IC50: 71 µM

## TAFTFQSSKEKLDVG [Peptide 109]
CD4+ T-cells
  Immunogenicity, % of responses: 11%
  Immunogenicity, No of responses: one out of nine and 1 of 9

## TDLHMLGAPVWAMLF [Peptide 96]
HLA-DP4; [1]
  IC50: 10.9 µM

## TFRSPQKFGALIFLV [Peptide 91]
HLA-DP4; [1]
  IC50: 24.8 µM

## TGLQTLYSAALYHLT [Peptide 102]
HLA-DP4; [1]
  IC50: 14.3 µM

## YKAFSTCAFHLSVVS [Peptide 69]
HLA-DP4; Peptides with IC50 < 200 µM were considered binders
  Binding to HLA-DP4 in cell-based binding assay (in words): not to bind

B1: IFN-γ: human recombinant IFN-γ (#570206; BioLegend) (protein, UniProt P01579 24-161, looked up)
Interferon gamma: QDPYVKEAENLKKYFNAGHSDVADNGTLFLGILKNWKEESDRKIMQSQIVSFYFKLFKNFKDDQSIQKSVETIKEDMNVKFFNSNKKKRDDFEKLTNYSVTDLNVQRKAIHELIQVMAELSPAAKTGKRKRSQMLFRG
PDAC cell lines; 14 PDAC and circulating tumor cell lines, 50 ng/mL
  MHC class II surface expression: upregulated in these cell lines and de novo expression was observed in six additional cell lines
PDAC cell lines
  MHC-II expression, agent alone: induced low expression of MHC-II
